Like-named read-outs stand apart in the source and are kept apart here. Ends that are not written are not given here.
Assays:
[1] = Circular dichroism (CD); type: physicochemical; details: bandwidth of 1 nm; buffer spectrum subtracted as blank
[2] = tested on: RBDs; type: binding, SARS-CoV-2; details: peptide-GO complexes; RBDs 0 to 12 μg mL-1; PBS (0.01 M, pH 7.40); excitation 520 nm
[3] = type: binding; design: unit not given here; details: 2D MnO2 (1–12 µg mL−1); peptide probe 2 × 10−6 M; PBS (0.01 M, pH 7.4), 2 min, excitation 520 nm; double reciprocal linear fitting
[4] = tested on: RBDs from the S-proteins of the five VOCs; experiment: Differential sensing of RBDs with S1-S20 (fluorescence, PCA, loading plots); type: binding, SARS-CoV-2; details: PCA and loading plots
[5] = type: binding; design: unit not given here; details: CNTs (1–8 µg mL−1); peptide probe 2 × 10−6 M; PBS (0.01 M, pH 7.4), 2 min, excitation 520 nm; double reciprocal linear fitting
[6] = type: binding; design: unit not given here; details: GO (1–15 µg mL−1); peptide probe 2 × 10−6 M; PBS (0.01 M, pH 7.4), 2 min, excitation 520 nm; double reciprocal linear fitting
[7] = type: binding; design: unit not given here; details: AuNPs (1–20 µg mL−1); peptide probe 2 × 10−6 M; PBS (0.01 M, pH 7.4), 2 min, excitation 520 nm; double reciprocal linear fitting

| Substance | secondary structure (CD spectra) [1] | sensitivity of the peptide probes for the RBDs (order, from detection limits) [2] | binding constant (Ka) [3] | contribution of peptide probes for VOC classification (order, loading plots) [4] | binding constant (Ka) [5] | binding constant (Ka) [6] | binding constant (Ka) [7] |
| --- | --- | --- | --- | --- | --- | --- | --- |
| GI7: heptamer (residues 352–358) from the β3 and β4-sheet of hACE2 (GKGDFRI; UniProt Q9BYF1 352-358, looked up, fragment) | no typical signature of secondary structures | – | – | – | – | – | – |
| TL7: fluorescently tagged (5-TAMRA) peptide probe, presumably of LL7 (LAQMYPL; also: 5-TAMRA label, site not given here; UniProt Q9BYF1 79-85, looked up, fragment) | – | TI26 > TQ26 > TQ19 > TL7 > TI7 | 0.0096 | TI26 > TQ26 > TQ19 > TL7 > TI7 | 0.0776 | 0.0319 | 0.0249 |
| TI7: fluorescently tagged (5-TAMRA) peptide probe, presumably of GI7 (GKGDFRI; also: 5-TAMRA label, site not given here; UniProt Q9BYF1 352-358, looked up, fragment) | – | TI26 > TQ26 > TQ19 > TL7 > TI7 | 0.1024 | TI26 > TQ26 > TQ19 > TL7 > TI7 | 0.1462 | 0.0273 | 0.0153 |
| QQ19: continuous 19-mer (amino-acid residues 24–42) truncated from the α1-helix of hACE2 (QAKTFLDKFNHEAEDLFYQ; UniProt Q9BYF1 24-42, looked up, fragment) | two minima at 202 and 222 nm, characteristic of α-helices | – | – | – | – | – | – |
| LL7: heptamer (residues 79–85) from α2-helix of hACE2 (LAQMYPL; UniProt Q9BYF1 79-85, looked up, fragment) | no typical signature of secondary structures | – | – | – | – | – | – |
| TQ19: fluorescently tagged (5-TAMRA) peptide probe, presumably of QQ19 (QAKTFLDKFNHEAEDLFYQ; also: 5-TAMRA label, site not given here; UniProt Q9BYF1 24-42, looked up, fragment) | – | TI26 > TQ26 > TQ19 > TL7 > TI7 | – | TI26 > TQ26 > TQ19 > TL7 > TI7 | – | – | – |

Reference: PMC11295173 (Journal of the American Chemical Society, 2024)
